The text below walks through data of patent US20080200515A1, “SOLID STATE FORMS OF ENANTIOPURE ILAPRAZOLE” (TAP PHARMACEUTICAL PRODUCTS INC., priority 2006, published 2008).

One test concerns gastric acid. In words: Phase 1 clinical studies with ilaprazole: suppression of gastric acid. The test is classed as in vivo, human. As to conditions: at the doses studied.
Test [1] has as its system acid-related gastric and duodenal ulcers. In words: Phase 2 clinical studies with ilaprazole in patients with gastric-acid related disorders. Particulars: at the doses studied. The test is classed as in vivo, human.

Take `COc1ccnc(C[S+]([O-])c2nc3cc(-n4cccc4)ccc3[nH]2)c1C` (stereo not drawn) [ilaprazole, 2[[(4-methoxy-3-methyl-2-pyridinyl)-methyl]sulfinyl]-5-(1H-pyrrol-1-yl) 1H-Benzimidazole]: the “suppression of gastric acid” value with gastric acid is on record as “suppression of gastric acid occurs over a 24-hour period”. For the same compound, the “healing of acid-related gastric and duodenal ulcers” value in test [1] is “promoted rapid healing”. Further, the symptomatic relief result in test [1] (patients with gastric-acid related disorders) is recorded as “provided symptomatic relief”.
